System: serum cytokines
Assay: Serum cytokines in CIA arthritis mice (multi-factor detection)
Format: in vivo, C57BL/6 mice
Details: MEAN ± SEM
Source text: Test materials and animals: Consistent with Experimental Example 3. Anti-type II collagen antibody ELISA kit was purchased from Chondrex, Cytokine & Chemokine 36-Plex Mouse ProcartaPlex™ Panel 1A cytokine and chemokine detection kit was purchased from ThermoFisher.
Model preparation and drug administration: the drug dosage of each treatment group was the same as that of Experimental Example 3. After 21 days of the second immunization, the mice were anesthetized.
(3) The effects of each drug group on cytokine secretion in serum and joint tissues of CIA mice were measured. Seven mice from each group were examined; peripheral blood was collected and separated from serum. Cytokines in serum were detected by multiple factors: IFN-γ, IL-6, IL-9, IL-12, IL-17A, IP-10, MCP-1, MCP-3. MIP-1α, MIP-1β, Eotaxin, and G-CSF; the right hind limb knees, joints and claws were taken and stored in liquid nitrogen for quick freezing, then homogenized and extracted protein. Multi-factor detection of cytokines in tissues: IL-9, IL-18 and MIP-2 secretion.

In the case of `COc1ccc(C=CC(=O)O)cc1O` [isoferulic acid, 3-hydroxy-4-methoxycinnamic acid], the Eotaxin is reported as 349.6 ± 85.4 pg/mL, the G-CSF is reported as 4 ± 1.2 pg/mL and the IL-6 is reported as 23.3 ± 21.6 pg/mL. It also gave an IL-9 of 15 ± 5.8 pg/mL, an IL-12 of 21.9 ± 3.5 pg/mL and an IL-17A of 4.9 ± 3.1 pg/mL. It also gave an IP-10 of 52.8 ± 20.8 pg/mL, an MCP-1 of 139.3 ± 43.4 pg/mL and an MCP-3 of 151.9 ± 20 pg/mL. It also gave an MIP-1α of 2.4 ± 0.6 pg/mL, an MIP-1β of 3.2 ± 1.1 pg/mL and an IFN-γ (isoferulic acid 5 mg/kg) of 120.6 ± 37.1 pg/mL.

— patent US20200108032A1, “USE OF ISOFERULIC ACID, ISOFERULIC ACID-CONTAINING TRADITIONAL CHINESE MEDICINE EXTRACT AND CIMICIFUGAE RHIZOMA” (BEIJING DITAN HOSPITAL, CAPITAL MEDICAL UNIVERSITY, priority 2017, published 2020)
